Reference: patent US4868203A, “Bacterial substance and pharmaceutical composition thereof” (Kabushikikaisha Ueno Seiyaku Oyo Kenkyujo, priority 1986, dated 1989)
Values after ≈ are worked out from the molar mass of the structure shown.

Columns and labels:
[1] = test system: Pasteurella piscicida KGP86041; format: cell-based
Bacillus subtilis 6633 = format: cell-based
Procedure: (§1) The minimum growth inhibitory concentration (MIC) values of bacterial substance UFC-N11 to various kinds of bacteria determined according to the conventional method were measured in the conventional manner.

[2] = test system: Escherichia coli NIHJ JC-2; format: cell-based
Procedure: as §1

Campylobacter jejuni = format: cell-based
Procedure: as §1

Salmonella typhimurium = format: cell-based
Procedure: as §1

[3] = test system: Xandomonas campestris FV Pruni 7855SMR; format: cell-based; conditions: Xandomonas campestris FV Pruni 7855SMR (bacterial spot of peach)
Procedure: as §1

Klebsiella pneumoniae = format: cell-based
Procedure: as §1

[4] = test system: Corynebacterium michiganence PV michiganene NIAES 1044; format: cell-based; conditions: Corynebacterium michiganence NIAES 1044 (bacterial canker of tomatoes)
Procedure: as §1

[5] = test system: Pseudomonas syringae PV lachrymans NIAES 1316; format: cell-based; conditions: Pseudomonas syringae PV lachrymans NIAES 1316 (angular leaf spot of cucumber)
Procedure: as §1

[6] = test system: Pseudomonas syringae PV tabaci NIAES 1075; format: cell-based
Procedure: as §1

[7] = test system: Ervinia carotovara subsp. carotovora NIAES 1393; format: cell-based; conditions: Ervinia carotovara NIAES 1393 (black leg of potatoes)
Procedure: as §1

[8] = test system: Salmonella enteritidis 1891; format: cell-based
Procedure: as §1

Proteus vulgaris OX-19 = format: cell-based
Procedure: as §1

Campylobacter fetus = format: cell-based
Procedure: as §1

[9] = test system: Pseudomonas syringae PV Mori NIAES 1020; format: cell-based; conditions: Pseudomonas syringae PV Mori NIAES 1020 (bacterial rugose)
Procedure: as §1

[10] = Solubility in various solvents
[11] = test system: Pasteurella piscicida DM-85 strain; set-up: species or system yellowtail; conditions: in vivo

## CC=CC=CC=CC(=O)NC(CC(=O)NC(C(=O)C1C(=O)NC(=O)C1C)C(C)C)c1ccccc1 (stereo not drawn) [UFC-N11]
[1]
  MIC: 0.16 µg/mL (≈ 0.334 µM)
Bacillus subtilis 6633
  MIC: 0.39 µg/mL (≈ 0.813 µM)
[2]
  MIC: 1.56 µg/mL (≈ 3.25 µM)
Campylobacter jejuni
  MIC: 0.78 µg/mL (≈ 1.63 µM)
Salmonella typhimurium
  MIC: 6.25 µg/mL (≈ 13 µM)
[3]
  MIC: 0.1 µg/mL (≈ 0.209 µM)
Klebsiella pneumoniae
  MIC: 12.5 µg/mL (≈ 26.1 µM)
[4]
  MIC: 6.25 µg/mL (≈ 13 µM)
[5]
  MIC: 6.25 µg/mL (≈ 13 µM)
[6]
  MIC: 12.5 µg/mL (≈ 26.1 µM)
[7]
  MIC: 6.25 µg/mL (≈ 13 µM)
[8]
  MIC: 0.78 µg/mL (≈ 1.63 µM)
Proteus vulgaris OX-19
  MIC: 0.195 µg/mL (≈ 0.407 µM)
Campylobacter fetus
  MIC: 1.56 µg/mL (≈ 3.25 µM)
[9]
  MIC: 25 µg/mL (≈ 52.1 µM)
[10]; n-hexane, chloroform, benzene and water
  Solubility in various solvents: slightly soluble or insolbule
[10]; pyridine, acetic acid, dimethyl sulfoxide, methanol, ethanol, acetone, ethyl acetate and dimethyl ether
  Solubility in various solvents: soluble
[11]
  therapeutic effect: excellent therapeutic effect
